Patent publication US20210355104A1, “ADENOSINE RECEPTOR BINDING COMPOUNDS” (Nikang Therapeuticsm Inc., priority 2018, published 2021)
Several values for one entry are separate records, joined by “and”; a condition that tells them apart may be missing. Identical values can stand only once. Like-named read-outs stand apart in the source and are kept apart here.

Tests used:
[1] = test system: p-CREB (phosphorylated cAMP response-element binding protein) in human whole blood; test: p-CREB assay in human whole blood by flow cytometry (NECA stimulation, CD4 staining); format: cell-based
In short: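 Fresh human whole blood preincubated 1 h at room temperature with compounds (11-point 1:3 series from 30 uM) plus adenosine deaminase, then stimulated 30 min with NECA and Rolipram (10× additions of 50 uM stocks). Cells lysed/fixed, permeabilised, stained for p-CREB and CD4, read by flow cytometry.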

Adenosine A2A receptor [2] = biological target: T1, Adenosine A2A receptor (Homo sapiens, UniProt P29274); test: Adenosine A2A receptor competitive binding assay (Tag-lite HTRF); conditions: Tag-lite adenosine A2A receptor ligand binding
T1 sequence (P29274 whole entry): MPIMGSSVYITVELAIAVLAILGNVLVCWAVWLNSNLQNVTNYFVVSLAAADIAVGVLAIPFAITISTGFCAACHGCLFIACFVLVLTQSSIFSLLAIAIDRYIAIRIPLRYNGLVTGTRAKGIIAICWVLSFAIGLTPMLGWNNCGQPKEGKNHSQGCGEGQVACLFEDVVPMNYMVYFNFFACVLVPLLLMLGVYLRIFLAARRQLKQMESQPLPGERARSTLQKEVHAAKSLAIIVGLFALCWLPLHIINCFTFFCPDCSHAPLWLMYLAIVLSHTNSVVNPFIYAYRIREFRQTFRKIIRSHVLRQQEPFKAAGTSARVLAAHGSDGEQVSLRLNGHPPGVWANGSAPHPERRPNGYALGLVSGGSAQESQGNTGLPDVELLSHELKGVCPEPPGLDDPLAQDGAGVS
In short: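 Compound displacement of a red fluorescent antagonist tracer (added at 60 nM stock) from donor-labelled, pre-transfected human A2A cells was read by HTRF after 2 h at room temperature; compound dilutions contained 0.6% DMSO.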

Adenosine A2A receptor [3] = biological target: T1, Adenosine A2A receptor; test: cAMP assay in 293A cells stably expressing the adenosine A2A receptor (CGS21680 stimulation, HTRF); format: cell-based; set-up: expressed in transfected cells; host or cells: 293A cells (Invitrogen, Cat# R705-07) infected with A2A-expressing lentivirus (custom packaged by Biosettia), puromycin selected; conditions: 0.1% BSA
[4] = Homo sapiens, values separated by / are repeat determinations
[5] = 2 h room temperature, values separated by / are repeat determinations
[6] = 293A-A2AR cells, 8 nM CGS, values separated by / are repeat determinations, read-out: cAMP (nM) 0.1% BSA, 8 nM CGS
[7] = 293A-A2AR cells, 1 uM CGS, values separated by / are repeat determinations, read-out: cAMP (nM) 0.1% BSA, 1 uM CGS
[8] = 293A-A2AR cells, 1 uM CGS, read-out: cAMP (nM) 0.1% BSA, 1 uM CGS
[9] = 293A cells stably expressing A2A receptor, 1 uM CGS21680 stimulation, replicate values separated by /, read-out: cAMP (nM) 0.1% BSA, 1 uM CGS
[10] = Homo sapiens, replicate values separated by /

Structure (SMILES)	IC50 [1, 4] [nM]	IC50 (Adenosine A2A receptor [2]; [5])	IC50 (Adenosine A2A receptor [3]; [8])	IC50 ([1]; Homo sapiens) [nM]	further results
COCC(O)COc1nc(N)nc(-c2ccc(F)cc2)c1-c1cc(C)nc(C(F)F)c1 (stereo not drawn) [Example 85, 1-((2-amino-5-(2-(difluoromethyl)-6-methylpyridin-4-yl)-6-(4-fluorophenyl)pyrimidin-4-yl)oxy)-3-methoxypropan-2-ol]	469	4.2 nM	–	–	–
Cc1cc(-c2c(OCCNS(N)(=O)=O)nc(N)nc2-c2ccc(F)cc2)cc(C(F)(F)F)n1 [Example 111]	1780	4.1 nM	–	–	IC50 (Adenosine A2A receptor [3]; [6]): 2.2 nM and 1.1 nM
Cc1cc(-c2c(OCc3ccccn3)nc(N)nc2-c2ccc(F)cc2)cc(C(F)F)n1 [Example 95, 5-(2-(difluoromethyl)-6-methylpyridin-4-yl)-4-(4-fluorophenyl)-6-(pyridin-2-ylmethoxy)pyrimidin-2-amine]	14	0.24 nM	–	–	IC50 (Adenosine A2A receptor [3]; [7]): 12 nM
Cc1cc(-c2c(OCc3cccc(C(C)(C)O)n3)nc(N)nc2-c2ccc(F)cc2)cc(C(F)F)n1 [Example 225]	–	–	136 nM and 200 nM and 176 nM	15.1	IC50 (Adenosine A2A receptor [2]; HTRF): 18.1 nM
Cc1cc(-c2c(OCc3nccn3C(C)CO)nc(N)nc2-c2ccc(F)cc2)cc(C(F)F)n1 (stereo not drawn) [Example 209, 2-(2-(((2-amino-5-(2-(difluoromethyl)-6-methylpyridin-4-yl)-6-(4-fluorophenyl)pyrimidin-4-yl)oxy)methyl)-1H-imidazol-1-yl)propan-1-ol]	–	–	84 nM and 97 nM	125	IC50 (Adenosine A2A receptor [3]; 293A-A2AR cells, 8 nM CGS, read-out: cAMP (nM) 0.1% BSA, 8 nM CGS): 1.6 nM and 2.4 nM; IC50 (Adenosine A2A receptor [2]; HTRF): 1.9 nM and 4.2 nM
Cc1cc(-c2c(OCCn3ccccc3=O)nc(N)nc2-c2ccc(F)cc2)cc(C(F)F)n1 [Example 122, 1-(2-((2-amino-5-(2-(difluoromethyl)-6-methylpyridin-4-yl)-6-(4-fluorophenyl)pyrimidin-4-yl)oxy)ethyl)pyridin-2(1H)-one]	63	1.8 nM	–	–	IC50 (Adenosine A2A receptor [3]; [6]): 0.88 nM and 0.69 nM; IC50 (Adenosine A2A receptor [3]; [7]): 35 nM and 53 nM
CCc1c(COc2nc(N)nc(-c3ccc(F)cc3)c2-c2cc(C)nc(C(F)F)c2)nnn1CC [Example 135, 4-((1,5-diethyl-1H-1,2,3-triazol-4-yl)methoxy)-5-(2-(difluoromethyl)-6-methylpyridin-4-yl)-6-(4-fluorophenyl)pyrimidin-2-amine]	93.2	1.2 nM and 4.3 nM	–	–	IC50 (Adenosine A2A receptor [3]; [6]): 3.1 nM and 2.6 nM; IC50 (Adenosine A2A receptor [3]; [7]): 77 nM
CNS(=O)(=O)NCCOc1nc(N)nc(-c2ccccc2)c1-c1cc(C)nc(C(F)(F)F)c1 [Example 121]	478	3.9 nM	–	–	IC50 (Adenosine A2A receptor [3]; [6]): 1.5 nM and 1.4 nM; IC50 (Adenosine A2A receptor [3]; [7]): 55 nM and 139 nM
Cc1cc(-c2c(OCc3nccn3C(F)F)nc(N)nc2-c2ccc(F)cc2)cc(C(F)F)n1 [Example 306, 4-((1-(difluoromethyl)-1H-imidazol-2-yl)methoxy)-5-(2-(difluoromethyl)-6-methylpyridin-4-yl)-6-(4-fluorophenyl)pyrimidin-2-amine]	–	–	26 nM and 23 nM	6.9	–
Cc1cc(-c2c(OCC3CCOCC3)nc(N)nc2-c2ccc(F)cc2)cc(C(F)F)n1 [Example 55, 5-(2-(difluoromethyl)-6-methylpyridin-4-yl)-4-(4-fluorophenyl)-6-((tetrahydro-2H-pyran-4-yl)methoxy)pyrimidin-2-amine]	93	0.7 nM and 5.4 nM	–	–	IC50 (Adenosine A2A receptor [3]; [6]): 0.54 nM and 0.49 nM; IC50 (Adenosine A2A receptor [3]; [7]): 96 nM
Cc1cc(-c2c(OCc3cccc(C(C)(C)C(=O)O)n3)nc(N)nc2-c2ccc(F)cc2)cc(C(F)F)n1 [Example 263, 2-(6-(((2-amino-5-(2-(difluoromethyl)-6-methylpyridin-4-yl)-6-(4-fluorophenyl)pyrimidin-4-yl)oxy)methyl)pyridin-2-yl)-2-methylpropanoic acid]	–	–	33 nM and 168 nM and 95 nM and 126 nM	82	IC50 [1]: 114 nM
CCc1c(COc2nc(N)nc(-c3ccc(F)cc3)c2-c2cc(C)nc(C(F)F)c2)nnn1C [Example 136, 5-(2-(difluoromethyl)-6-methylpyridin-4-yl)-4-((5-ethyl-1-methyl-1H-1,2,3-triazol-4-yl)methoxy)-6-(4-fluorophenyl)pyrimidin-2-amine]	15.8	0.6 nM and 1.1 nM	–	–	IC50 (Adenosine A2A receptor [3]; [6]): 2.3 nM; IC50 (Adenosine A2A receptor [3]; [7]): 29 nM and 27 nM
Cc1cc(-c2c(OCc3nccc4ccccc34)nc(N)nc2-c2ccc(F)cc2)cc(C(F)F)n1 [Example 381, 5-(2-(difluoromethyl)-6-methylpyridin-4-yl)-4-(4-fluorophenyl)-6-(isoquinolin-1-ylmethoxy)pyrimidin-2-amine]	–	–	16 nM and 3.2 nM	36	–
Cc1cc(-c2c(OCc3ccnnc3)nc(N)nc2-c2ccc(F)cc2)cc(C(F)F)n1 [Example 285, 5-(2-(difluoromethyl)-6-methylpyridin-4-yl)-4-(4-fluorophenyl)-6-(pyridazin-4-ylmethoxy)pyrimidin-2-amine]	–	–	378 nM and 272 nM	179	–
Cc1cc(-c2c(OCc3cccc(CNC(CO)CO)n3)nc(N)nc2-c2ccc(F)cc2)cc(C(F)F)n1 [Example 419, 2-(((6-(((2-amino-5-(2-(difluoromethyl)-6-methylpyridin-4-yl)-6-(4-fluorophenyl)pyrimidin-4-yl)oxy)methyl)pyridin-2-yl)methyl)amino)propane-1,3-diol]	–	–	–	–	IC50 (Adenosine A2A receptor [3]; [9]): 470 nM and 311 nM; IC50 [1, 10]: 87.8 nM
Cc1cc(-c2c(OCc3nccn3CCCC(=O)O)nc(N)nc2-c2ccc(F)cc2)cc(C(F)F)n1 [Example 219, 4-(2-(((2-amino-5-(2-(difluoromethyl)-6-methylpyridin-4-yl)-6-(4-fluorophenyl)pyrimidin-4-yl)oxy)methyl)-1H-imidazol-1-yl)butanoic acid]	–	–	–	170	IC50 (Adenosine A2A receptor [2]; HTRF): 9 nM
CCn1c(COc2nc(N)nc(-c3ccc(F)cc3)c2-c2cc(C)nc(C(F)F)c2)nc2cccnc21 [Example 329, 5-(2-(difluoromethyl)-6-methylpyridin-4-yl)-4-((3-ethyl-3H-imidazo[4,5-b]pyridin-2-yl)methoxy)-6-(4-fluorophenyl)pyrimidin-2-amine]	–	–	87 nM and 249 nM and 153 nM	128	–
Cc1cc(-c2c(OCc3ncccc3C(C)(C)O)nc(N)nc2-c2ccc(F)cc2)cc(C(F)F)n1 [Example 238]	–	–	313 nM	36.3	–
Cc1cc(-c2c(OCc3cccc(C(C)(C)NCCO)n3)nc(N)nc2-c2ccc(F)cc2)cc(C(F)F)n1 [Example 407, 2-((2-(6-(((2-amino-5-(2-(difluoromethyl)-6-methylpyridin-4-yl)-6-(4-fluorophenyl)pyrimidin-4-yl)oxy)methyl)pyridin-2-yl)propan-2-yl)amino)ethan-1-ol]	–	–	–	–	IC50 (Adenosine A2A receptor [3]; [9]): 107 nM and 88 nM; IC50 [1, 10]: 91.5 nM
Cc1cc(-c2c(OCc3cccc(COC(N)=O)n3)nc(N)nc2-c2ccc(F)cc2)cc(C(F)F)n1 [Example 429, (6-(((2-amino-5-(2-(difluoromethyl)-6-methylpyridin-4-yl)-6-(4-fluorophenyl)pyrimidin-4-yl)oxy)methyl)pyridin-2-yl)methyl carbamate]	–	–	–	–	IC50 (Adenosine A2A receptor [3]; [9]): 59 nM and 43 nM; IC50 [1, 10]: 33 nM
Cc1cc(-c2c(OCc3nc4ccccc4n3C)nc(N)nc2-c2ccc(F)cc2)cc(C(F)F)n1 [Example 314, 5-(2-(difluoromethyl)-6-methylpyridin-4-yl)-4-(4-fluorophenyl)-6-((1-methyl-1H-benzo[d]imidazol-2-yl)methoxy)pyrimidin-2-amine]	–	–	0.4 nM and 1 nM	9.8	–
Cc1cc(-c2c(OCc3ccnc(OC(CO)CO)n3)nc(N)nc2-c2ccc(F)cc2)cc(C(F)F)n1 [Example 434, 2-((4-(((2-amino-5-(2-(difluoromethyl)-6-methylpyridin-4-yl)-6-(4-fluorophenyl)pyrimidin-4-yl)oxy)methyl)pyrimidin-2-yl)oxy)propane-1,3-diol]	–	–	–	–	IC50 (Adenosine A2A receptor [3]; [9]): 346 nM and 290 nM; IC50 [1, 10]: 411 nM
Cc1cc(-c2c(OCc3cccc(C4CC4)n3)nc(N)nc2-c2ccc(F)cc2)cc(C(F)F)n1 [Example 326, 4-((6-cyclopropylpyridin-2-yl)methoxy)-5-(2-(difluoromethyl)-6-methylpyridin-4-yl)-6-(4-fluorophenyl)pyrimidin-2-amine]	–	–	90 nM and 144 nM and 84 nM	57.1	–
Cc1cc(-c2c(OCCc3ccccn3)nc(N)nc2-c2ccc(F)cc2)cc(C(F)F)n1 [Example 313, 5-(2-(difluoromethyl)-6-methylpyridin-4-yl)-4-(4-fluorophenyl)-6-(2-(pyridin-2-yl)ethoxy)pyrimidin-2-amine]	–	–	20 nM and 64 nM	71.5	–
Cc1cc(-c2c(OCc3cccc(N(CCO)CCO)n3)nc(N)nc2-c2ccc(F)cc2)cc(C(F)F)n1 [Example 402, 2,2′-((6-(((2-amino-5-(2-(difluoromethyl)-6-methylpyridin-4-yl)-6-(4-fluorophenyl)pyrimidin-4-yl)oxy)methyl)pyridin-2-yl)azanediyl)bis(ethan-1-ol)]	–	–	–	–	IC50 (Adenosine A2A receptor [3]; [9]): 515 nM and 579 nM and 560 nM; IC50 [1, 10]: 692 nM
